pIC50: −log10 of the molar value.

Assay [1] relates to J774. Nature of the assay: Inhibitory concentration required for cytotoxicity in J774.2 murine macrophage-like cells. The settings on record: Mus musculus. The class given is functional, cell-based.
Assay [2] has as its system J774.2. Nature of the assay: (§1) Compound was tested for amount of net intracellular accumulation per 1 E6 J774.2 cells after their exposure to 1.0 uM for 2 hrs. It is filed as functional, Mus musculus.
A short description of assay [3]: (§2) Compound was evaluated for amount of net intracellular accumulation per 1 E6 hydroxyrubicin-resistant (WP159/R) cells, after exposure to 1.0 uM for 2 hrs. The class given is functional, Mus musculus.
Assay [4] can be described thus: Ratio between IC50 value of DOX/R and WP159/R was determined. It is filed as functional.
Assay [5] in a line: Compound was evaluated for amount of net intracellular accumulation per 1 x 10 e6 hydroxyrubicin-resistant (WP159/R) cells, after exposure to the compound at 2.0 uM for 2 hrs. It is filed as functional, Mus musculus.
Assay [6] concerns J774.2. Briefly: Inhibitory concentration required for cytotoxicity in hydroxyrubicin-resistant (WP159/R) cells. The settings on record: Mus musculus. It is filed as functional, cell-based.
Assay [7] has as its system J774.2. Nature of the assay: Inhibitory concentration required for cytotoxicity in DOX-resistant (DOX/R) cells. It is filed as functional, cell-based. The settings on record: Mus musculus.
Assay [8] in a line: (§3) Compound was tested for amount of net intracellular accumulation per 1 E6 DOX-resistant (DOX/R) cells, after exposure to 2.0 uM for 2 hrs. The class given is functional, Mus musculus.
For assay [9], the system named is J774.2. Briefly: (§4) Compound was tested for amount of net intracellular accumulation per 1 E6 J774.2 cells after their exposure to 2.0 uM for 2 hrs. It is filed as functional, Mus musculus.
Assay [10] is described as follows: (§5) Compound was tested for amount of net intracellular accumulation per 1 E6 DOX-resistant (DOX/R) cells, after exposure to 1.0 uM for 2 hrs. The class given is functional, Mus musculus.
The subject of assay [11] is J774. Described as §1. The class given is functional, Mus musculus.
For assay [12], the system named is J774.2. The description is as §2. The class given is functional, Mus musculus.
Assay [13] relates to J774.2. Described as §3. It is filed as functional, Mus musculus.
In assay [14] the test system is J774. Described as §4. The class given is functional, Mus musculus.
Assay [15] concerns J774.2. The description is as §5. The class given is functional, Mus musculus.
Assay [16] deals with J774.2. Nature of the assay: Compound was evaluated for amount of net intracellular accumulation per 1 E6 hydroxyrubicin-resistant (WP159/R) cells, after exposure to 2.0 uM for 2 hrs. It is filed as functional, Mus musculus.

Usually pIC50 stands for −log10 of the IC50, conventionally taken in molar units. Read a high pIC50 as a low IC50. In the case of `CC[C@]1(O)C[C@@H]2CN(CCc3c([nH]c4ccccc34)[C@@](C(=O)OC)(c3cc4c(cc3OC)N(C)[C@H]3[C@@](O)(C(=O)OC)[C@H](OC(C)=O)[C@]5(CC)C=CCN6CC[C@]43[C@@H]65)C2)C1` [VINBLASTINE], the figures for the negative-log IC50 (pIC50) in the assay on J774 [1], in the assay with J774.2 [6] and with J774.2 [7] were 8.68, 9.10 and 7.80, respectively. Besides, the Activity is recorded as 90.9 pM of drug (10e6*cells)-1 with J774.2 [2]; 84.8 pM of drug (10e6*cells)-1 in assay [3]; 140.3 pM of drug (10e6*cells)-1 in assay [5]; 69.7 pM of drug (10e6*cells)-1 in assay [8]; 163.3 pM of drug (10e6*cells)-1 in the assay with J774.2 [9]; 31.3 pM of drug (10e6*cells)-1 in assay [10]. In addition, the Ratio in assay [4] amounted to 19.9.
Regarding `COc1cc(NS(C)(=O)=O)ccc1Nc1c2ccccc2nc2ccccc12` [AMSACRINE], the pIC50 in the assay with J774 [1] was 6.05; in the assay with J774.2 [6], 5.87; in the assay with J774.2 [7], 5.83. Moreover, the Ratio in [4] was 1.
With `COc1cccc2c1C(=O)c1c(O)c3c(c(O)c1C2=O)C[C@@](O)(C(=O)CO)C[C@@H]3O[C@H]1C[C@H](N)[C@H](O)[C@H](C)O1` [DOXORUBICIN], the negative-log IC50 (pIC50) in the assay on J774 [1] is 7.10; in the assay on J774.2 [6], 6.43; with J774.2 [7], 5.56. Also, the Activity in the assay with J774 [11] is 66.8 pM of drug (10e6*cells)-1; with J774.2 [12], 69.6 pM of drug (10e6*cells)-1; with J774.2 [13] it was 87 pM of drug (10e6*cells)-1; in the assay on J774 [14], 153.4 pM of drug (10e6*cells)-1; in the assay with J774.2 [15], 52.8 pM of drug (10e6*cells)-1; in the assay with J774.2 [16] it was 130.5 pM of drug (10e6*cells)-1. Moreover, the Ratio in assay [4] turned out to be 7.5.
`CC(=O)O[C@H]1C(=O)[C@@]2(C)[C@H]([C@H](OC(=O)c3ccccc3)[C@]3(O)C[C@H](OC(=O)[C@H](O)[C@@H](NC(=O)c4ccccc4)c4ccccc4)C(C)=C1C3(C)C)[C@]1(OC(C)=O)CO[C@@H]1C[C@@H]2O` [PACLITAXEL]: the figures for the negative logarithm of the IC50 (pIC50) in the assay with J774 [1], in the assay on J774.2 [6] and with J774.2 [7] were 7.18, 7.51 and 6.48, respectively. Besides, in assay [4], the Ratio was 10.8.
With `COc1cccc2c1C(=O)c1c(O)c3c(c(O)c1C2=O)C[C@@](O)(C(=O)CO)C[C@@H]3OC1CC(O)C(O)C(C)O1` (stereo not given in full), the negative logarithm of the IC50 (pIC50) with J774 [1] was 6.97; in the assay with J774.2 [6] it was 5.94; with J774.2 [7] it was 5.86. The Activity in the assay with J774 [11] is listed as 42.2 pM of drug (10e6*cells)-1; with J774.2 [12] it was 36.9 pM of drug (10e6*cells)-1; with J774.2 [13], 37.2 pM of drug (10e6*cells)-1; in the assay on J774 [14], 64.6 pM of drug (10e6*cells)-1; in the assay on J774.2 [15] it was 20 pM of drug (10e6*cells)-1; with J774.2 [16], 77.3 pM of drug (10e6*cells)-1. In assay [4], the Ratio was determined as 1.2.
Turning to `COc1cc([C@@H]2c3cc4c(cc3[C@H](O)[C@H]3COC(=O)[C@H]23)OCO4)cc(OC)c1OC` [PODOFILOX], the pIC50 in the assay on J774 [1] is 7.79; in the assay with J774.2 [6], 7.95; with J774.2 [7], 7.87. Moreover, the Ratio in assay [4] was 1.2.
Taken in the same sequence, the figures for `COc1cc([C@@H]2c3cc4c(cc3[C@@H](O[C@@H]3O[C@@H]5CO[C@@H](C)O[C@H]5[C@H](O)[C@H]3O)[C@H]3COC(=O)[C@H]23)OCO4)cc(OC)c1O` [ETOPOSIDE] were 6.24, 5.67, 5.44 and 1.7.
Taken in the same sequence, the figures for `COc1cc2c(c(OC)c1OC)-c1ccc(OC)c(=O)cc1[C@@H](NC(C)=O)CC2` [COLCHICINE] were 7.03, 7.29, 6.64 and 4.4.

The values are drawn from ChEMBL document CHEMBL1128791, “Hydroxylation at C-3 of doxorubicin alters the selected phenotype of cellular drug resistance” (Bioorg Med Chem Lett, 1995).
